The values that follow are results of earlier work, collected in PubChem BioAssay AID1259409 (Chemical Carcinogenesis Research Information System (CCRIS), 2018).

In this data set the test system is rodent chemically induced tumor inhibition, incidence and multiplicity. Kind of data set: CCRIS tumor inhibitor studies. To be noted: Route [Inhibitor]: ORAL, Species: RAT.

With `CCCCCCOc1cc(C)c(O)c(C)c1C`, the “tumour outcome (control, treated, inhibition, significance)” value reads like this: (Carcinogen: 1,2-DIMETHYLBHYDRAZINE [540-73-8], Dose [Inhibitor]: 0.5% IN DIET FOR 32 WK BEGINNING 1 WK POST LAST CARCINOGEN DOSE (STUDY DURATION: 36 WK), Strain/Sex: F344/MALE, Target Tissue: Type of Lesion: COLON: ADENOMA OR CARCINOMA, Dose [Carcinogen]: 40 MG/KG BW 1X/WK FOR 4 WK (STUDY DURATION: 36 WK), Promoter: 2-AMINO-1-METHYL-6-PHENYLIMIDAZO[4,5-B]PYRIDINE [105650-23-5]) 20/21 (95%), 19/19 (100%), -5%, not significant; (Carcinogen: 2-AMINO-1-METHYL-6-PHENYL-1H-IMIDAZO[4,5-B]PYRID INE, 105650-23-5, Dose [Inhibitor]: 0, 0.5% IN THE DIET FOR 52 WK (STUDY DURATION: 52 WK), Strain/Sex: F344/FEMALE, Target Tissue: Type of Lesion: MAMMARY GLAND: ADENOCARCINOMA FIBROADENOMA, Dose [Carcinogen]: 0.02% IN THE DIET FOR 52 WK, Promoter: NONE USED) 2/20 (10%), 0/21 (0%), 100%, not significant; (Carcinogen: 2-AMINO-1-METHYL-6-PHENYL-1H-IMIDAZO[4,5-B]PYRID INE, 105650-23-5, Dose [Inhibitor]: 0, 0.5% IN THE DIET FOR 52 WK (STUDY DURATION: 52 WK), Strain/Sex: F344/FEMALE, Target Tissue: Type of Lesion: MAMMARY GLAND: ADENOCARCINOMA, Dose [Carcinogen]: 0.02% IN THE DIET FOR 52 WK, Promoter: NONE USED) 8/20 (40%), 1/21 (5%), 88%, p< 0.01; (Carcinogen: 2-AMINO-1-METHYL-6-PHENYLIMIDAZO[4,5-B]PYRIDINE, 105650-23-5, Dose [Inhibitor]: 0, 0.5% IN DIET FOR 52 WK CONCURRENTLY WITH CARCINOGEN TREATMENT (STUDY DURATION: 52 WK), Strain/Sex: F344/FEMALE, Target Tissue: Type of Lesion: LARGE INTESTINE: ADENOMA OR CARCINOMA, Dose [Carcinogen]: 0.02% IN DIET FOR 52 WK, Promoter: NONE USED) 2/18 (11%), 0/21 (0%), 100%, not calculated; (Carcinogen: 2-AMINO-1-METHYL-6-PHENYLIMIDAZO[4,5-B]PYRIDINE, 105650-23-5, Dose [Inhibitor]: 0, 0.5% IN DIET FOR 52 WK CONCURRENTLY WITH CARCINOGEN TREATMENT (STUDY DURATION: 52 WK), Strain/Sex: F344/FEMALE, Target Tissue: Type of Lesion: MAMMARY GLAND: ADENOCARCINOMA, Dose [Carcinogen]: 0.02% IN DIET FOR 52 WK, Promoter: NONE USED) 8/20 (40%), 1/21 (5%), 88%, p<0.01; (Carcinogen: DIETHYLNITROSAMINE, 55-18-5, N-METHYL-N-NITROSOUREA, 684-63-5, N-BUTYL-N-(4-HYDROXYBUTYL)NITROSAMINE, 3817-11-6, DIMETHY, Carcinogen: DIETHYLNITROSAMINE, 55-18-5, N-METHYL-N-NITROSOUREA, 684-63-5, N-BUTYL-N-(4-HYDROXYBUTYL)NITROSAMINE, 3817-11-6, DIMETHY, Dose [Inhibitor]: 0, 1% IN THE DIET FOR 30 D BEGINNING 1 D PRIOR TO CARCINOGEN TREATMENT (STUDY DURATION: 28 WK), Strain/Sex: F344/MALE, Target Tissue: Type of Lesion: SMALL INTESTINE: CARCINOMA, Dose [Carcinogen]: 100 MG/KG BW DEN ONCE FOLLOWED BY 20 MG/KG BW MNU 4 TIMES AND 0.05% BBN IN DRINKING WATER DURING FIRST 2 WK THEN 40 MG/K, Promoter: NONE USED) 7%, 14%, -100%, not significant. Besides, the “tumour outcome (control, treated, inhibition, significance)” value runs as follows: (Carcinogen: DIETHYLNITROSAMINE, 55-18-5, N-METHYL-N-NITROSOUREA, 684-93-5, N-BUTYL-N-(4-HYDROXYBUTYL)NITROSAMINE, 3817-11-6, DIMETHY, Carcinogen: DIETHYLNITROSAMINE, 55-18-5, N-METHYL-N-NITROSOUREA, 684-93-5, N-BUTYL-N-(4-HYDROXYBUTYL)NITROSAMINE, 3817-11-6, DIMETHY, Dose [Inhibitor]: 0, 1% IN THE DIET FOR 24 MO BEGINNING 1 DAY POST CARCINOGEN TREATMENT (STUDY DURATION: 28 WK), Strain/Sex: F344/MALE, Target Tissue: Type of Lesion: LARGE INTESTINE: CARCINOMA, Dose [Carcinogen]: 100 MG/KG BW DEN ONCE FOLLOWED BY 20 MG/KG BW MNU 4 TIMES AND 0.05% BBN IN DRINKING WATER DURING FIRST 2 WK THEN 40 MG/K, Promoter: NONE USED) 7%, 7%, 0%, not significant; (Carcinogen: DIETHYLNITROSAMINE, 55-18-5, N-METHYL-N-NITROSOUREA, 684-93-5, N-BUTYL-N-(4-HYDROXYBUTYL)NITROSAMINE, 3817-11-6, DIMETHY, Carcinogen: DIETHYLNITROSAMINE, 55-18-5, N-METHYL-N-NITROSOUREA, 684-93-5, N-BUTYL-N-(4-HYDROXYBUTYL)NITROSAMINE, 3817-11-6, DIMETHY, Dose [Inhibitor]: 0, 1% IN THE DIET FOR 24 WK BEGINNING 1 D POST CARCINOGEN TREATMENT (STUDY DURATION: 28 WK), Strain/Sex: F344/MALE, Target Tissue: Type of Lesion: URINARY BLADDER: PAPILLOMA, Dose [Carcinogen]: 100 MG/KG BW DEN ONCE FOLLOWED BY 20 MG/KG BW MNU 4 TIMES AND 0.05% BBN IN DRINKING WATER DURING FIRST 2 WK THEN 40 MG/K, Promoter: NONE USED) 7%, 0%, 100%, not significant; (Carcinogen: DIETHYLNITROSAMINE, 55-18-5, N-METHYL-N-NITROSOUREA, 684-93-5, N-BUTYL-N-(4-HYDROXYBUTYL)NITROSAMINE, 3817-11-6, DIMETHY, Carcinogen: DIETHYLNITROSAMINE, 55-18-5, N-METHYL-N-NITROSOUREA, 684-93-5, N-BUTYL-N-(4-HYDROXYBUTYL)NITROSAMINE, 3817-11-6, DIMETHY, Dose [Inhibitor]: 0, 1% IN THE DIET FOR 24 WK BEGINNING 1 DAY POST CARCINOGEN TREATMENT (STUDY DURATION: 28 WK), Strain/Sex: F344/MALE, Target Tissue: Type of Lesion: LARGE INTESTINE: ADENOMA, Dose [Carcinogen]: 100 MG/KG BW DEN ONCE FOLLOWED BY 20 MG/KG BW MNU 4 TIMES AND 0.05% BBN IN DRINKING WATER DURING FIRST 2 WK THEN 40 MG/K, Promoter: NONE USED) 27%, 0%, 100%, p<0.05.
